Measurements as given in publication PMC5855688, “BC-Box Motif-Mediated Neuronal Differentiation of Somatic Stem Cells” (International Journal of Molecular Sciences, 2018).
Entries after “also recorded” stand apart in the source; their conditions may differ.

Assays:
[1] = test system: rat brain; assay: Immunohistochemistry (NeuN) of transplanted peptide-treated cells in rat brain; format: in vivo, rat (Wistar); settings: 1 × 10^5 peptide-treated cells transplanted into rat brain, 6 weeks; mean ± SEM; vs VHL(157–171): p < 0.01 for VHL(157–168), p < 0.005 for TAT
Method: To evaluate neuronal differentiation of transplanted cells in rat brains, immunohistochemical study was performed as described previously. Before grafting, cells were preincubated with red fluorescence PKH26PCL (Sigma, St. Louis, MO, USA). […] Rats were anesthetized with isoflurane before surgery, and 1 × 10^5 cells were transplanted into rat brain. The rats were perfused with periodate-lysine-paraformaldehyde solution 6 weeks after the transplantation. Their brains were subsequently dissected and postfixed in the same medium for 2 h, cryopreserved in 30% sucrose for 12 h, and then embedded in Tissue Tek OCT compound (Sakura, Tokyo, Japan). Cryostat coronal sections of 14-μm thickness were prepared for immunohistochemistry. For immunostaining, sections were incubated with primary antibody, anti-NeuN antibody, and then incubated in secondary antibody, FITC-conjugated anti-rabbit IgG. Counterstaining was done with DAPI. In immohistochemistry, observations were made with a confocal immunofluorescence microscope (FV300, Olympus, Tokyo, Japan).
Wistar rats (Clea, Tokyo, Japan) were used in all experiments and housed in a temperature controlled room on a 12-h day/night cycle with free access to food and water. All animal experimental procedures were approved by the Institutional Animal Use Committee of Yokohama City University (ID 153, 1 April 2015) and were in accordance with National Institutes of Health guidelines for care and use of laboratory animals.

[2] = test system: JAK2; assay: Ubiquitination assay (IP anti-JAK2, IB anti-ubiquitin); format: biochemical, rat; settings: incubation 4 h with ubiquitin, E1, E2 and peptide; vs no peptide or TAT, p < 0.001; Figure 5A
Method: We asked whether VHL(157–171) peptide-mediated neuronal differentiation was related to ubiquitination or not. […] After incubation for 4 h, cultured cells (1 × 10^6) were washed with ice-cold PBS and lysed in RIPA lysis buffer (Upstate, Charlottesville, VA, USA). The total protein was extracted from the cells, and the lysates were immunoprecipitated with anti-JAK2 antibody (Santa Cruz, San Diego, CA, USA) by using Protein A/G Sepharose (abcam, Cambridge, MA, USA). The immunoprecipitates were supplemented with 1 mM PMSF and the protease inhibitor cocktail. After 2 h, each sample was separated by SDS-PAGE and transferred electrophoretically to nitrocellulose filters. Western blots were probed with anti-ubiquitin antibody (Sigma-Aldrich) followed by horseradish peroxidase-conjugated secondary antibodies (Amersham). Protein bands were detected by using a chemical luminescence detection system (Amersham). Images were analyzed with LAS-1000 (Fujifilm).

[3] = test system: JAK2; assay: Western blotting of JAK2 before and after peptide treatment; format: cell-based, rat; settings: Western blot, Figure 5B, p < 0.01
[4] = test system: STAT3; assay: Western blotting of STAT3 before and after peptide treatment; format: cell-based, rat; settings: Western blot, Figure 5B, p < 0.01
[5] = test system: skin-derived precursors (SKPs); assay: Western blot analysis of neuronal markers in NDD peptide-treated cells; format: cell-based, rat (neonate Wistar); settings: Figure 6A
Method: (§1) Rodent skin-derived precursor cells (SKPs), which can differentiate to neurons, were used. SKPs were previously isolated from the back dermis of neonate Wistar rats by the authors. These cells were cultured in growth medium composed of DMEM/F12 (1:1; Gibco, Grand Island, NY, USA) containing 2% B27 supplement (Gibco), 20 ng/mL epidermal growth factor (EGF; Upstate Biotechnology, Lake Placid, NY, USA), and 40 ng/mL bFGF (PeproTech EC Ltd., Rocky Hill, NJ, USA) in a humidified incubator at 37 °C with 5% CO2. The floating clusters of cultured cells were centrifuged and dissociated into a single-cell suspension by use of a Pasteur pipette with a flame-polished tip. These single cells were then re-suspended into at a concentration of 50,000 cells/mL for passage or experiments.
(§2) For neuronal differentiation, cells were dissociated into a single-cell suspension by use of a Pasteur pipette and re-suspended into a concentration of 50,000 cells/mL in DMEM/F12 without serum, neurotrophic factors or growth factors. Then, the cells were cultured on poly-L-lysine-coated dishes or cover glasses, and the synthesized peptides at concentrations from 1 to 5 μM were added to the culture medium and delivered into the cells. Three days or more later, the cells were used for morphological, immunocytochemical, immunohistochemical, electrophysiological and immunoprecipitation studies, as well as for Western blot analysis.
Cultured cells were washed 3 times in cold PBS and then scraped into ice-cold PBS. After incubation on ice for 10 min, the cells were lysed with lysis buffer and centrifuged, after which the supernatants were collected. Each sample was separated by SDS-PAGE under reducing conditions and transferred electrophoretically to nitrocellulose filters. Non-specific binding of antibody was blocked by incubation with 5% donkey serum for 1 h. Western blots were probed with anti-MAP2 antibody, anti-NFH antibody, anti-ChAT antibody, anti-GAD antibody, anti-rhodopsin antibody, anti-TH antibody, and anti-elongin C antibody (Santa Cruz, San Diego, CA, USA) followed by horseradish peroxidase-conjugated secondary antibodies. Protein bands were detected by using a chemical luminescence detection system (ECL Plus Western Blotting Reagent Pack, Amersham, Hemel Hempstead, UK). Images were analyzed with LAS-1000 (Fujifilm, Tokyo, Japan), and the density of the bands was determined by using Image Gauge software (Fujifilm).

[6] = test system: skin-derived precursors (SKPs); assay: Immunocytochemistry of neuronal markers in NDD peptide-treated cells; format: cell-based, rat (neonate Wistar); settings: Figure 6B
Method: as §1, §2
Cultured cells were fixed with 4% paraformaldehyde in PBS (Phosphate buffered saline) for 10 min at room temperature. Cells were incubated for 1 h at room temperature with primary antibodies. Antibodies against anti-MAP2 antibody (Sigma-Aldrich, St. Louis, MO, USA), anti-Neurofilment-H (NFH) antibody (Sigma-Aldrich), anti-NeuN antibody (Merk Millipore, Billerica, MA, USA), anti-GFAP antibody (DAKO, Santa Clara, CA, USA), anti-tyrosine hydroxylase (TH) antibody (Merk Millipore, Billerica, MA, USA), anti-choline acetyl transferase (ChAT) antibody (Abbiotec, San Diego, CA, USA), anti-glutamic acid decaboxylase (GAD) antibody (Enzo Life Sciences, Flamingdale, NY, USA), and anti-rhodopsin antibody (Santa Cruz, San Diego, CA, USA) were used. After incubation with primary antibody, the cells were incubated for 1 h with secondary antibody, either rhodamine-conjugated anti-mouse IgG (Sigma-Aldrich) or FITC-conjugated anti-rabbit IgG (Sigma-Aldrich). Nuclear counterstaining was done with DAPI (Molecular Probes, Eugene, OR, USA) or TO-PRO-3 (Molecular Probes), and observations were made with a fluorescence microscope system (FV300, Olympus, Tokyo, Japan). We counted the number of immuno-positive cells with a given antibody in 4 to 6 random non-overlapping visual fields (50–200 cells per field) in each experiment. At least 2 experiments were performed per condition. The degree of positivity was expressed as the rate of immuno-positive cells to the total number of nuclei stained with DAP1 or TO-PRO-3.

YARAAARQARATLKERCLQVVRSLVK [VHL(157–171), NDD in pVHL: BC-box motif plus five amino acids, conjugated with PTD]
Positive rates of NeuN [1]: 42.5 ± 4.5%
JAK2 ubiquitination [2]: had activity as an E3 ubiquitin ligase and mediated JAK2 ubiqutination; also recorded: ubiquitination was significantly enhanced
JAK2 degradation [3]: JAK2 and STAT3 were indeed degraded
STAT3 degradation [4]: JAK2 and STAT3 were indeed degraded
Expression of ChAT ([5]; choline acetyltransferase): high
Expression of TH ([5]; tyrosine hydroxylase): moderate
Rate of GAD-positive (GABAnergic neuron-like) cells [6]: high rates of positive cells
Rate of TH-positive (dopaminergic neuron-like) cells [6]: high rates of positive cells
Rate of rhodopsin-positive cells [6]: high rates of positive cells
